For 22 molecules, T/C results are on record in PubChem BioAssay AID248 (DTP/NCI, 2004).

The assay concerns L1210 leukemia ip in BDF1 mice, survival T/C. Kind of assay: NCI In Vivo Anticancer Drug Screen. Data for tumor model L1210 Leukemia (intraperitoneal) in B6D2F1 (BDF1) mice. The settings on record: endpoint: mean survival time, higher = longer survival. In outline: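 Value reflects the ratio of survival in compound-treated mice to survival in vehicle-treated controls, with both groups carrying the same transplanted tumor.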

[1] abbreviates: dose: 100.0 mg/kg/injection, schedule: Q01DX009 (ip), vehicle: saline with Tween-80.
Setting [2] is: dose: 100.0 mg/kg/injection, schedule: Q04DX003 (ip), vehicle: saline with Tween-80.
Setting [3] is: dose: 200.0 mg/kg/injection, schedule: Q01DX009 (ip), vehicle: saline with Tween-80.
Setting [4] is: dose: 400.0 mg/kg/injection, schedule: Q01DX009 (ip), vehicle: saline with Tween-80.
[5] abbreviates: dose: 400.0 mg/kg/injection, schedule: Q04DX003 (ip), vehicle: saline with Tween-80.
The mark [6] stands for this setting: dose: 100.0 mg/kg/injection, schedule: Q04DX003 (ip), vehicle: Klucel (hydroxypropylcellulose) (HPC).
Where [7] appears, read: dose: 200.0 mg/kg/injection, schedule: Q04DX003 (ip), vehicle: Klucel (hydroxypropylcellulose) (HPC).
Where [8] appears, read: dose: 400.0 mg/kg/injection, schedule: Q04DX003 (ip), vehicle: Klucel (hydroxypropylcellulose) (HPC).
The mark [9] stands for this setting: dose: 100.0 mg/kg/injection, schedule: Q04DX002 (ip), vehicle: saline with Tween-80.
[10] abbreviates: dose: 200.0 mg/kg/injection, schedule: Q04DX002 (ip), vehicle: saline with Tween-80.
Where [11] appears, read: dose: 400.0 mg/kg/injection, schedule: Q04DX002 (ip), vehicle: saline with Tween-80.
The mark [12] stands for this setting: dose: 50.0 mg/kg/injection, schedule: Q01DX009 (ip), vehicle: Klucel (hydroxypropylcellulose) (HPC).
Setting [13] is: dose: 100.0 mg/kg/injection, schedule: Q01DX009 (ip), vehicle: Klucel (hydroxypropylcellulose) (HPC).
Where [14] appears, read: dose: 200.0 mg/kg/injection, schedule: Q01DX009 (ip), vehicle: Klucel (hydroxypropylcellulose) (HPC).
Setting [15] is: dose: 100.0 mg/kg/injection, schedule: Q04DX003 (ip), vehicle: saline.
[16] abbreviates: dose: 200.0 mg/kg/injection, schedule: Q04DX003 (ip), vehicle: saline.
Setting [17] is: dose: 400.0 mg/kg/injection, schedule: Q04DX003 (ip), vehicle: saline.
Setting [18] is: dose: 200.0 mg/kg/injection, schedule: Q04DX003 (ip), vehicle: saline with Tween-80.
The mark [19] stands for this setting: dose: 100.0 mg/kg/injection, schedule: Q01DX001 (ip), vehicle: carboxymethylcellulose (CMC).

“And” between values parts separate entries of the source, which are not always exact repeats. Equal entries are not always repeated. Toxic doses and inconclusive results are not listed. Square brackets hold non-standard residues; d marks the D form. Peptide text beside a SMILES is read from it. * marks the point of attachment. ξ: configuration not given here. ξE = NC(CCC(=O)O)C(=O)O; Cbz = O=C(OCc1ccccc1)*

Regarding `O=C(O)CCC(NC(=O)OCc1ccccc1)C(=O)NCC(=O)O` (stereo not drawn) (Cbz-[ξE]-Gly-OH), the T/C is 95 % of control (dose: 12.5 mg/kg/injection, schedule: Q04DX002 (ip), vehicle: saline); 92 % of control (dose: 25.0 mg/kg/injection, schedule: Q04DX002 (ip), vehicle: saline); 100 % of control (dose: 50.0 mg/kg/injection, schedule: Q04DX002 (ip), vehicle: saline).
As to `COC(=O)CCC(=O)CCC(C)C`, the T/C under setting [1] was 110 % of control; the T/C under setting [2] is 103 % of control; the T/C under setting [3] was 92 % of control; the T/C under setting [4] was 101 % of control; the T/C under setting [5] is 93 % of control.
Take `CC/C=C(/C)C(C#N)(C(=O)O)C(C)C` (stereo not drawn): the T/C by setting is: (dose: 75.0 mg/kg/injection, schedule: Q01DX001 (ip), vehicle: saline) 98 % of control; (dose: 150.0 mg/kg/injection, schedule: Q01DX001 (ip), vehicle: saline) 104 % of control; (dose: 300.0 mg/kg/injection, schedule: Q01DX001 (ip), vehicle: saline) 94 % of control.
On to `O=C(Nc1ccc(Nc2ccccc2)cc1)Nc1ccc(F)c(Cl)c1`, for which the T/C under setting [6] was 92 % of control, the T/C under setting [7] is 94 % of control and the T/C under setting [8] is 94 % of control.
As for `CSc1ccc(NC(=S)NC(=O)c2ccc(Cl)cc2Cl)cc1`, the T/C runs as follows: under setting [1], 93 % of control and 89 % of control; under setting [9], 90 % of control and 92 % of control; under setting [3], 96 % of control and 88 % of control; under setting [10], 93 % of control and 100 % of control; under setting [4], 96 % of control and 100 % of control; under setting [11], 107 % of control and 90 % of control.
With `CCN=C(N)c1ccc(N=C(N)c2ccc(C(N)=Nc3ccc(C(N)=NCC)cc3)cc2)cc1`, the T/C was 98 % of control (dose: 7.5 mg/kg/injection, schedule: Q01DX Z (oral), vehicle: saline); 258 % of control (dose: 15.0 mg/kg/injection, schedule: Q01DX Z (ip), vehicle: saline); 100 % of control (dose: 15.0 mg/kg/injection, schedule: Q01DX Z (oral), vehicle: saline); 102 % of control (dose: 30.0 mg/kg/injection, schedule: Q01DX Z (oral), vehicle: saline); 102 % of control (dose: 60.0 mg/kg/injection, schedule: Q01DX Z (oral), vehicle: saline); 103 % of control (dose: 125.0 mg/kg/injection, schedule: Q## X010 (oral), vehicle: saline). For the same molecule, the T/C runs as follows: (dose: 150.0 mg/kg/injection, schedule: Q01DX Z (oral), vehicle: saline) 89 % of control; (dose: 250.0 mg/kg/injection, schedule: Q## X010 (oral), vehicle: saline) 195 % of control.
With `CCCCN1C(=O)C2CCC34C5C(=O)N(CCCC)C(=O)C5C5C=CC3(C2C1=O)C1C(=O)N(CCCC)C(=O)C1N54` (stereo not drawn), the T/C was 99 % of control under setting [12]; 99 % of control under setting [13]; 97 % of control under setting [14]; 97 % of control (dose: 400.0 mg/kg/injection, schedule: Q01DX009 (ip), vehicle: Klucel (hydroxypropylcellulose) (HPC)).
As to `CCOC(=O)/C(C#N)=C(\CCCCc1ccccc1)CC(C)C`, the T/C was 101 % of control under setting [9], 92 % of control under setting [10] and 104 % of control under setting [11].
On to `CC1(C)OC2C(CO)OC(n3cnc4c(N)ncnc43)C2O1` (stereo not drawn), for which the T/C was 103 % of control (dose: 25.0 mg/kg/injection, schedule: Q01DX009 (ip), vehicle: Klucel (hydroxypropylcellulose) (HPC)); 98 % of control under setting [12]; 100 % of control under setting [13]; 103 % of control under setting [6]; 103 % of control under setting [7].
Consider `Cc1cc(=O)[nH][nH]c1=O`, for which the T/C under setting [12] is 97 % of control; the T/C (dose: 50.0 mg/kg/injection, schedule: Q04DX003 (ip), vehicle: Klucel (hydroxypropylcellulose) (HPC)) is 106 % of control; the T/C (dose: 100.0 mg/kg/injection, schedule: Q01DX001 (ip), vehicle: saline with Tween-80) was 95 % of control; the T/C under setting [13] is 105 % of control; the T/C under setting [6] was 103 % of control; the T/C under setting [15] is 94 % of control. The T/C runs as follows: (dose: 200.0 mg/kg/injection, schedule: Q01DX001 (ip), vehicle: saline with Tween-80) 92 % of control; under setting [14], 101 % of control; under setting [7], 101 % of control; under setting [16], 97 % of control; (dose: 400.0 mg/kg/injection, schedule: Q01DX001 (ip), vehicle: saline with Tween-80) 100 % of control; under setting [17], 97 % of control.
`COc1cc2ccc3c4cc5c(cc4cnc3c2cc1OC)OCO5`: the T/C is, setting by setting: under setting [1], 102 % of control; under setting [2], 89 % of control; under setting [3], 98 % of control; under setting [18], 87 % of control; under setting [4], 106 % of control; under setting [5], 89 % of control.
As to `CC1(C(O)(c2ccccc2)c2ccccc2)CC1`, the T/C is 109 % of control (dose: 25.0 mg/kg/injection, schedule: Q04DX002 (sc), vehicle: olive oil, sesame oil, peanut oil); 97 % of control (dose: 50.0 mg/kg/injection, schedule: Q04DX002 (sc), vehicle: olive oil, sesame oil, peanut oil); 106 % of control (dose: 100.0 mg/kg/injection, schedule: Q04DX002 (sc), vehicle: olive oil, sesame oil, peanut oil).
In the case of `NC(C(=O)O)C(N)(CC(=O)O)C(=O)O` (stereo not drawn), the T/C runs as follows: under setting [9], 94 % of control; under setting [10], 94 % of control; under setting [11], 105 % of control.
As to `CCN(CC)CCOC(=O)c1cc(=O)n(CCC(C)C)c2ccccc12`, the T/C reads like this: under setting [15], 113 % of control; under setting [16], 107 % of control; under setting [17], 101 % of control.
Consider `Cc1[nH]c2ccccc2c1/C=C/c1c[nH]c2ccccc12`, for which the T/C (dose: 50.0 mg/kg/injection, schedule: Q01DX001 (ip), vehicle: carboxymethylcellulose (CMC)) is 93 % of control; the T/C under setting [19] was 91 % of control; the T/C (dose: 200.0 mg/kg/injection, schedule: Q01DX001 (ip), vehicle: carboxymethylcellulose (CMC)) is 98 % of control; the T/C (dose: 400.0 mg/kg/injection, schedule: Q01DX001 (ip), vehicle: carboxymethylcellulose (CMC)) was 91 % of control.
Take `CC(C)=CCN(CC=C(C)C)CCC(C#N)c1cccc2ccccc12` (stereo not drawn): the T/C was 100 % of control under setting [12]; 88 % of control under setting [13]; 109 % of control under setting [6]; 88 % of control under setting [14]; 90 % of control under setting [7]; 93 % of control under setting [8].
For the molecule `CC1(C)C2CC3C(CCC4C(=O)OC(=O)C43)C1C2` (stereo not drawn), the T/C reads like this: (dose: 100.0 mg/kg/injection, schedule: Q01DX001 (ip), vehicle: Klucel (hydroxypropylcellulose) (HPC)) 97 % of control; (dose: 200.0 mg/kg/injection, schedule: Q01DX001 (ip), vehicle: Klucel (hydroxypropylcellulose) (HPC)) 98 % of control; (dose: 400.0 mg/kg/injection, schedule: Q01DX001 (ip), vehicle: Klucel (hydroxypropylcellulose) (HPC)) 103 % of control.
In the case of `Cc1nc(N(C)C)nc(C)c1C#[N+][O-]`, under setting [19], the T/C was 94 % of control.
With `CC(C)C12OC1CC1C3(C)CCCC(C)(C(=O)O)C3CCC13OC32` (stereo not drawn), the T/C is 98 % of control under setting [1]; 90 % of control under setting [2]; 96 % of control under setting [3]; 90 % of control under setting [18]; 93 % of control under setting [4]; 90 % of control under setting [5].
Take `Nc1ncnc(Nc2ccccc2[N+](=O)[O-])c1[N+](=O)[O-]`: the T/C was 97 % of control (dose: 12.5 mg/kg/injection, schedule: Q01DX001 (ip), vehicle: Klucel (hydroxypropylcellulose) (HPC)); 87 % of control (dose: 25.0 mg/kg/injection, schedule: Q01DX001 (ip), vehicle: Klucel (hydroxypropylcellulose) (HPC)); 87 % of control (dose: 50.0 mg/kg/injection, schedule: Q01DX001 (ip), vehicle: Klucel (hydroxypropylcellulose) (HPC)).
For the molecule `c1ccc(CNCc2ccccc2)cc1`, the T/C reads like this: under setting [12], 93 % of control; under setting [13], 93 % of control; under setting [6], 95 % of control; under setting [14], 100 % of control; under setting [7], 95 % of control.
As for `C/C=C/C(=O)Nc1cccc(O)c1`, the T/C was 93 % of control under setting [1], 91 % of control under setting [3] and 93 % of control under setting [4].
